Data as given in US20170166561A1, “QUINUCLIDINE COMPOUNDS FOR MODULATING ALPHA7-NICOTINIC ACETYLCHOLINE RECEPTOR ACTIVITY” (Alpharmagen, LLC, priority 2014, published 2017).
Where a name gives a salt, the structure may show the parent alone. Read-outs that look alike come from different tables or passages of the source.

How the values were obtained:
[1] = Human plasma stability (Protocols 1 and 2); assay type: in vitro ADME; settings: human
Method: Example B6: Human Plasma Stability
Studies were carried out in human plasma. All plasma was obtained from Bioreclamation and collected on sodium heparin. Plasma was adjusted to pH 7.4. A DMSO stock was first prepared for the test compound. An aliquot of the DMSO solution was dosed into 1 mL of plasma, which had been pre-warmed to 37° C., at a final test compound concentration of 1 μM. The vials were kept in a benchtop Thermomixer® for the duration of the experiment. Aliquots (100 μL) were taken at each time point (0, 15, 30, 60, and 120 minutes) and added to 96-well plates which had been pre-filled with 300 μL of acetonitrile. Samples were stored at 4° C. until the end of the experiment. After the final time point was sampled, the plate was mixed and then centrifuged at 3,000 rpm for 10 minutes. Aliquots of the supernatant were removed, diluted 1:1 into distilled water, and analyzed by LC-MS/MS. The peak area response ratio to internal standard (PARR) of the compound at 15, 30, 60 and 120 minutes was compared to the PARR at time 0 to determine the percent of test compound remaining at each time point. Half-lives were calculated using GraphPad software, fitting to a single-phase exponential decay equation.
Studies were carried out in plasma. Plasma was prepared under approval of IRB and IACUC on sodium heparin. The pH of plasma was monitored and used within the range of pH 7.4 to pH 8.0. DMSO stocks were prepared for the test compounds. Aliquots of the DMSO solutions were diluted to 0.05 mM by 0.05 mM Sodium phosphate buffer with 0.5% BSA. Then 10 μL of 0.05 mM solutions were dosed into 90 μL of plasma in duplicates (n=2), which had been pre-warmed to 37° C., at a final test compound concentration of 5 μM. The plates were kept in a 37° C. water bath for the duration of the experiment. At each time point (0, 5, 15, 30, 45, 60, and 120 minutes), 400 μL of acetonitrile was added into corresponding wells. After the final time point was sampled, the plates were shaken at the vibrator (IKA, MTS 2/4) for 10 min (600 rpm/min) and then centrifuged at 5594 g for 15 min (Thermo Multifuge×3R). Aliquots of the supernatant were removed, diluted 1:1 into distilled water, and analyzed by LC-MS/MS. The peak area response ratio to internal standard (PARR) of the compounds at 5, 15, 30, 45, 60, and 120 minutes was compared to the PARR at time 0 to determine the percent of test compound remaining at each time point. Half-lives were calculated using Excel software, fitting to a single-phase exponential decay equation.

[2] = molecular target: T1, Human α7 NAChR (Homo sapiens, UniProt P36544); assay: Electrophysiology screen at 1 μM in Xenopus laevis oocytes; assay type: cell-based; settings: test compound 1 μM; Imax = maximal current produced by 3 mM ACh; holding voltage −70 mV
T1 construct: TriLink (mRNA); Ecocyte Bioscience (oocytes); host or cells: Xenopus laevis oocytes injected with mRNA
Method: Example B2: Electrophysiology Screen at 1 μM in Xenopus Laevis Oocytes
Human α7 NAChR mRNA Preparation:
Human α7 NAChR plasmid was prepared by GeneWiz from accession NM_000746.5. Human α7 NAChR mRNA was prepared by TriLink at a concentration near 1 μg/μL. The human α7 NAChR mRNA was diluted in sterile water to a working concentration near 10 ng/μL.
Xenopus laevis Oocyte Injection and Maintenance:
Oocytes were obtained from Xenopus laevis frogs and treated with collagenase by Ecocyte Bioscience. Oocytes were injected with the working concentration of α7 NAChR mRNA at a volume of 50 nL for a total of approximately 0.5 ng of α7 NAChR mRNA. Oocytes were maintained in Barth's solution at a temperature of 16° C. The Barth's solution was replaced daily.
Electrophysiology Measurement:
Two-electrode voltage clamp recordings were made 3-14 days following mRNA injections at a holding voltage of −70 mV. […]
In all oocyte recordings, drug and wash solutions were applied using a custom-designed microcapillary “linear array” which allows rapid application of agonists. Currents were recorded on a PC-based computer (PClamp, Molecular Devices, Sunnyvale, Calif.). […]
Stocks of test compounds were prepared in DMSO. […] The test solution was perfused onto the oocyte until a peak current was recorded. […]

[3] = Metabolic stability assay in human liver microsomes (HLM; Protocols 1 and 2); assay type: in vitro ADME; settings: 1 μM
Method: Example B4: Metabolic Stability Assays
Studies were carried out in human and rat liver microsomes (“HLM” and “RLM,” respectively). Human and rat liver microsomes were purchased from BD Gentest. DMSO stocks were prepared for the test compounds. Aliquots of the DMSO solutions were diluted to 0.5 mM by acetonitrile, then further diluted by liver microsomes/buffer to 1.5 μM. 30 μL of 1.5 μM solutions were mixed with 15 μL of 6 mM NADPH, which had been pre-warmed to 37° C., at a final test compound concentration of 1 μM. The plates were kept in a 37° C. water bath for the duration of the experiment. At each time point (0, 5, 15, 30, 45 minutes), 135 μL of acetonitrile was added into corresponding wells. After the final time point was sampled, the plates were shaken at a vibrator (IKA, MTS 2/4) for 10 min (600 rpm/min) and then centrifuged at 5594 g for 15 min (Thermo Multifuge×3R). Aliquots of the supernatant were removed, diluted 1:1 into distilled water, and analyzed by LC-MS/MS. The peak area response ratio to internal standard (PARR) of the compounds at 5, 15, 30, 45 minutes was compared to the PARR at time 0 to determine the percent of test compound remaining at each time point. Half-lives were calculated using Excel software, fitting to a single-phase exponential decay equation.
Studies were carried out in human and rat liver microsomes. Buffer solutions were prepared as follows: Buffer A: 1.0 L of 0.1 M monobasic Potassium Phosphate buffer containing 1.0 mM EDTA; Buffer B: 1.0 L of 0.1 M Dibasic Potassium Phosphate buffer containing 1.0 mM EDTA; Buffer C: 0.1 M Potassium Phosphate buffer, 1.0 mM EDTA, pH 7.4 by titrating 700 mL of buffer B with buffer A while monitoring with a pH meter.
Reference compound (Ketanserin) and test compound spiking solutions were prepared as follows: 500 μM spiking solution: add 10 μL of 10 mM DMSO stock solution into 190 μL ACN; 1.5 μM spiking solution in microsomes (0.75 mg/mL): add 1.5 μL of 500 μM spiking solution and 18.75 μL of 20 mg/mL liver microsomes into 479.75 μL of Buffer C.
NADPH stock solution (6 mM) was prepared by dissolving NADPH into buffer C.
Assay procedure: 30 μL of 1.5 μM spiking solution containing 0.75 mg/mL microsomes solution was dispensed to the wells designated for 45 min, 30 min, 15 min, 5 min, and 0 min. The plate was pre-incubated at 37° C. for 10 minutes. 15 μL of NADPH stock solution (6 mM) was added to the wells designated as Time 45, and the timer was started. At 30 min, 15 min, and 5 min, 15 μL NADPH stock solution (6 mM) was added to the wells, respectively. At the end of incubation (0 min), 135 tit of ACN containing IS was added to all the wells. Then 15 tit of NADPH stock solution (6 mM) was added to the wells designated as Time 0. After quenching, the reaction mixtures were centrifuged at 3220 g for 10 min. Following centrifugation, 50 μL of the supernatant was transferred from each well into a 96-well sample plate containing 50 μL of ultra-pure water (Millipore) for LC/MS analysis. The peak area response (PARR) ratio to internal standard of the compounds at 5, 15, 30, and 45 minutes was compared to the PARR at time 0 to determine the percent of test compound remaining at each time point. Half-lives were calculated using Excel software, fitting to a single-phase exponential decay equation.

[4] = molecular target: rat brain nicotinic receptor (α7 NAChR, α-Bungarotoxin binding site) (Rattus norvegicus, UniProt Q05941)
[5] = Protocol 2, plasma pH 7.4 to 8.0, 5 μM, 37° C., read-out: T1/2
[6] = Protocol 1, human liver microsomes, NADPH, 37° C.

rat brain nicotinic receptor (α7 NAChR, α-Bungarotoxin binding site), sequence (Q05941 23-502): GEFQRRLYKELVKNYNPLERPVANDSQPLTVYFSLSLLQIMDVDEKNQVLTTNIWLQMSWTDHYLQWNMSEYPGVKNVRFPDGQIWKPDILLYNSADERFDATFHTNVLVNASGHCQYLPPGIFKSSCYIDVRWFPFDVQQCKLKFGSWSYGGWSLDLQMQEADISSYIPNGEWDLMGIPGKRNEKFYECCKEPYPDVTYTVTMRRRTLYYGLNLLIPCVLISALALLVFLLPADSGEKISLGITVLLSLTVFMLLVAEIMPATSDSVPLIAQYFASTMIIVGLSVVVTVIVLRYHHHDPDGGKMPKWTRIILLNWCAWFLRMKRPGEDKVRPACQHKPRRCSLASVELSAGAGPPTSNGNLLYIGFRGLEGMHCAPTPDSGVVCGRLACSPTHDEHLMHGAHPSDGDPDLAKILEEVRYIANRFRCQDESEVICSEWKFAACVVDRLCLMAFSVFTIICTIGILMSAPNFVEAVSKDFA
T1 sequence (P36544 23-502): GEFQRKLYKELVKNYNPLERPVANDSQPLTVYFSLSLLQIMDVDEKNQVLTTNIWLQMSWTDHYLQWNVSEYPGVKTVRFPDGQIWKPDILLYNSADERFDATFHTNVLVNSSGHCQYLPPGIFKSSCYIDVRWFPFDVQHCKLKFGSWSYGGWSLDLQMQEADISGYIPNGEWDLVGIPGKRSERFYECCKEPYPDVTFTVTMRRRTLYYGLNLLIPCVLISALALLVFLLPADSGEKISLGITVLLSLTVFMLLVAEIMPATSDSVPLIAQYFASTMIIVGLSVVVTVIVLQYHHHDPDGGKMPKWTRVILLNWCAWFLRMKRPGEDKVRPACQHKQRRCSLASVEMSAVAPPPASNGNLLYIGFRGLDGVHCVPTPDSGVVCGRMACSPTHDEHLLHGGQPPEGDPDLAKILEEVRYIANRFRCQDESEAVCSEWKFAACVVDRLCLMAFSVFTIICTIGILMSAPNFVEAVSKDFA

SMILES	half-life at 5 μM [1, 5]	HLM ([3]; human, microsomes)	half-life at 5 μM ([1]; plasma, pH 7.4)	HLM [3, 6]	further results
Cl.O=C(OCC12CCN(CC1)CC2)c1c[nH]c2cccc(C(F)(F)F)c12 [Compound 80, Quinuclidin-4-ylmethyl 4-(trifluoromethyl)-1H-indole-3-carboxylate hydrochloride]	10.9 h				I/Imax [2]: 0.032
Cc1cc2c(C(=O)OCC34CCN(CC3)CC4)c[nH]c2cc1Cl [Compound 78, quinuclidin-4-ylmethyl 6-chloro-5-methyl-1H-indole-3-carboxylate]		0 mL/min/kg	4.77 h		
COc1cc2[nH]cc(C(=O)OCC34CCN(CC3)CC4)c2cc1OC [Compound 87, quinuclidin-4-ylmethyl 5,6-dimethoxy-1H-indole-3-carboxylate]	2.41 h			0.5 mL/min/kg	
Cc1ccc2[nH]cc(C(=O)OCC34CCN(CC3)CC4)c2c1C [Compound 70, quinuclidin-4-ylmethyl 4,5-dimethyl-1H-indole-3-carboxylate]		0 mL/min/kg	4.16 h		
Cc1cc(F)cc2[nH]cc(C(=O)OCC34CCN(CC3)CC4)c12 [Compound 44, quinuclidin-4-ylmethyl 6-fluoro-4-methyl-1H-indole-3-carboxylate]		3.5 mL/min/kg			T1/2 ([1]; plasma, pH 7.4): ∞
COc1cc2c(C(=O)OCC34CCN(CC3)CC4)c[nH]c2cc1C.Cl [Compound 79, quinuclidin-4-ylmethyl 5-methoxy-6-methyl-1H-indole-3-carboxylate hydrochloride]	2.71 h				I/Imax [2]: 0.259; IC50 [4]: 159 nM; Ki [4]: 137 nM
Cc1cc2[nH]cc(C(=O)OCC34CCN(CC3)CC4)c2cc1Cl.Cl [Compound 66, quinuclidin-4-ylmethyl 5-chloro-6-methyl-1H-indole-3-carboxylate hydrochloride]	5.26 h			0 mL/min/kg	
Cc1cc(O)cc2[nH]cc(C(=O)OCC34CCN(CC3)CC4)c12 [Compound 83, quinuclidin-4-ylmethyl 6-hydroxy-4-methyl-1H-indole-3-carboxylate]		2.7 mL/min/kg	6.48 h		
COc1ccc2c(C(=O)OCC34CCN(CC3)CC4)c[nH]c2c1 [Compound 10, quinuclidin-4-ylmethyl 6-methoxy-1H-indole-3-carboxylate]					IC50 [4]: 321 nM; Ki [4]: 279 nM
Cl.O=C(OCC12CCN(CC1)CC2)c1c[nH]c2cc(O)c(F)cc12 [Compound 59, Quinuclidin-4-ylmethyl 5-fluoro-6-hydroxy-1H-indole-3-carboxylate hydrochloride]	2.27 h			0 mL/min/kg	
COc1cc2c(C(=O)OCC34CCN(CC3)CC4)c[nH]c2cc1F [Compound 57, quinuclidin-4-ylmethyl 6-fluoro-5-methoxy-1H-indole-3-carboxylate]	5.47 h			0 mL/min/kg	
COc1cc2c(C(=O)OCC34CCN(CC3)CC4)c[nH]c2cc1Cl [Compound 69, quinuclidin-4-ylmethyl 6-chloro 5-methoxy-1H-indole-3-carboxylate, hydrochloride]		8.8 mL/min/kg	6.93 h		
